{"source": "patent US12458610B2", "about": "“Pharmaceutical composition for treating or preventing diabetic cataract” (KOREA UNIVERSITY RESEARCH AND BUSINESS FOUNDATION, priority 2019, dated 2025)", "assay_type_in_all_cases": "in vivo, rat", "key": {"TNFα": {"test_system": "TNFα", "assay": "TNFα level in blood (plasma)", "conditions": "OLETF rats, midodrine 0.3 mg/kg/day (OLETF-M0.3); OLETF 10.667±2.732, LETO 7.23±0.722", "from_the_text": "(§1) Otsuka Long-Evans Tokushima Fatty (OLETF) rats were used as a diabetes animal model of rats. The OLETF rats are widely used as a type 2 diabetes animal model because fat accumulation and hyperglycemia are induced in the body of the experimental animals and the pathological condition is similar to that of type 2 diabetes in human. Long-Evans Tokushima Otsuka (LETO) rats were used as a normal control group. The OLETF rats were divided into three groups depending on midodrine intake: OLETF, OLETF-M0.3 and OLETF-M1.0. The OLETF group was raised without intake of midodrine, the OLETF-M0.3 group was made to ingest 0.3 mg of midodrine every day per body weight (midodrine 0.3 mg/kg/day), and the OLETF-M1.0 group was made to ingest 1.0 mg of midodrine every day per body weight (midodrine 1.0 mg/kg/day). Midodrine was dissolved in drinking water so that the rats could ingest the corresponding daily dosage.\n(§2) The experimental animals were divided into four groups: LETO, OLETF, OLETF-M0.3 and OLETF-M1.0, and all the experimental animals were raised for 12 weeks. During the 12 weeks, the OLETF-M0.3 group and the OLETF-M1.0 group were made to ingest midodrine every day."}, "[1]": {"test_system": "Otsuka Long-Evans Tokushima Fatty (OLETF) rats", "assay": "Lens transparency: clarity of graph paper pattern seen through the lens (ImageJ)", "conditions": "midodrine 0.3 mg/kg/day for 12 weeks (OLETF-M0.3), untreated OLETF significantly decreased", "from_the_text": "as §1, §2"}, "aldose reductase": {"test_system": "aldose reductase", "assay": "Aldose reductase level in lens by ELISA", "conditions": "OLETF rats, OLETF 38.4±3.1, LETO 37.2±2.8", "from_the_text": "as §1, §2\n(§3) The levels of aldose reductase, hexokinase and ATP in the lens sample were measured with a spectrophotometer (Spectramax Plus 384; Molecular Devices, Sunnyvale, CA, USA) by ELISA assay."}, "[2]": {"assay": "Fasting blood sugar level in diabetes model rats, weekly by blood glucose meter", "conditions": "midodrine 1.0 mg/kg/day in drinking water (OLETF-M1.0), from week 9", "from_the_text": "as §1, §2"}, "hexokinase": {"test_system": "hexokinase", "assay": "Hexokinase level in lens by ELISA", "conditions": "OLETF rats, untreated OLETF significantly lower than LETO", "from_the_text": "as §1, §2, §3"}, "ATP": {"test_system": "ATP", "assay": "ATP level in lens by ELISA", "conditions": "OLETF rats, OLETF 2.307±0.225, LETO 2.622±0.146", "from_the_text": "as §1, §2, §3"}, "[3]": {"assay": "Body weight change in diabetes model rats", "conditions": "OLETF rats; for body weight over time: raising period", "from_the_text": "as §1, §2"}, "[4]": {"test_system": "Otsuka Long-Evans Tokushima Fatty (OLETF) rats", "assay": "Onset of cataract in lens by retroillumination imaging (LOCS III C1/P1 or higher)", "conditions": "untreated OLETF 8 out of 12 eyes", "from_the_text": "as §1, §2"}, "[5]": {"test_system": "AMPK (AMP-activated protein kinase)", "assay": "AMPK level in lens", "conditions": "OLETF rats, midodrine 0.3 mg/kg/day (OLETF-M0.3); OLETF 0.0509±0.0293 U/mL"}, "[6]": {"conditions": "midodrine 0.3 mg/kg/day (OLETF-M0.3)"}, "[7]": {"conditions": "midodrine 1.0 mg/kg/day (OLETF-M1.0)"}}, "data": [{"smiles": "COc1ccc(OC)c(C(O)CNC(=O)CN)c1", "note": "(racemic) [midodrine, (RS)—N-[2-(2,5-dimethoxyphenyl)-2-hydroxyethyl]glycinamide]", "values": [{"measurement": "level of the inflammatory cytokine TNFα in blood (plasma)", "setting": "TNFα", "value": "5.383 ± 0.984", "unit": "pg/mL"}, {"measurement": "lens transparency compared with the LETO group", "setting": "[1]", "value": "no significant difference"}, {"measurement": "level of aldose reductase in lens", "setting": "aldose reductase; [6]", "value": "33.6±2.6", "unit": "U/L"}, {"measurement": "level of aldose reductase in lens", "setting": "aldose reductase; [7]", "value": "34.1±2.8", "unit": "U/L"}, {"measurement": "fasting blood sugar level as compared to the OLETF group", "setting": "[2]", "value": "decreased slightly"}, {"measurement": "hexokinase level in lens as compared to the LETO group", "setting": "hexokinase; [6]", "value": "no significant difference"}, {"measurement": "hexokinase level in lens as compared to the LETO group", "setting": "hexokinase; [7]", "value": "no significant difference"}, {"measurement": "level of ATP in lens", "setting": "ATP; [6]", "value": "3.065 ± 0.202", "unit": "ng/mL"}, {"measurement": "level of ATP in lens", "setting": "ATP; [7]", "value": "3.025 ± 0.299", "unit": "ng/mL"}, {"measurement": "body weight compared with the LETO group", "setting": "[3]; midodrine 0.3 mg/kg/day (OLETF-M0.3), from week 9", "value": "no significant difference"}, {"measurement": "body weight over time", "setting": "[3]; midodrine 0.3 mg/kg/day in drinking water (OLETF-M0.3)", "value": "decreased slightly with time"}, {"measurement": "body weight over time", "setting": "[3]; midodrine 1.0 mg/kg/day in drinking water (OLETF-M1.0)", "value": "decreased slightly with time"}, {"measurement": "eyes with cataract observed", "setting": "[4]; midodrine 0.3 mg/kg/day for 12 weeks (OLETF-M0.3)", "value": "1 out of 10"}, {"measurement": "eyes with cataract observed", "setting": "[4]; midodrine 1.0 mg/kg/day for 12 weeks (OLETF-M1.0)", "value": "2 out of 8"}, {"measurement": "AMPK level in lens as compared to the OLETF group", "setting": "[5]", "value": "significantly increased"}]}]}
